Measurements from ChEMBL document CHEMBL1201862, “PubChem BioAssay data set” (2004).
One block for each molecule: values may come before it. Calls of active or inactive are those of the source.

Experiments:
Cytochrome P450 2C9 = Cytochrome P450 2C9 (Homo sapiens, UniProt P11712)
Cytochrome P450 2C19 = Cytochrome P450 2C19 (Homo sapiens, UniProt P33261); assay: Cytochrome panel assay with activity outcomes. Panel member name: p450-cyp2c19 Compounds with AC50 equal or less than 10 uM are considered active; type: functional; conditions: read-out: AC50
Cytochrome P450 2C19, sequence (P33261 whole entry): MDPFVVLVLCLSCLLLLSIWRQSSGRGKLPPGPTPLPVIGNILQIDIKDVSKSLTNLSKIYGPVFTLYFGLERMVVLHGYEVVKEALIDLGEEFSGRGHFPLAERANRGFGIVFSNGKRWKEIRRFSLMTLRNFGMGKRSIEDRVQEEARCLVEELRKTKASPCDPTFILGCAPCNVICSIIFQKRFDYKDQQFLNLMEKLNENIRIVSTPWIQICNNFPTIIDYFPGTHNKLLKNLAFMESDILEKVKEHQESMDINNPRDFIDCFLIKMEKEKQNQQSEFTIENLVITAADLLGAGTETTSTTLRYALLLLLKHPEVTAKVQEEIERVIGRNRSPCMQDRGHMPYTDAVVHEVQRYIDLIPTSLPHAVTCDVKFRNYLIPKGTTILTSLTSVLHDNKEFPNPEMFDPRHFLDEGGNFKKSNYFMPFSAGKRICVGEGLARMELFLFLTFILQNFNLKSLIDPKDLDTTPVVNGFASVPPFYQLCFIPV

[1] = molecular target: T1, Short transient receptor potential channel 4 (Mus musculus, UniProt Q9QUQ5); assay: mouse TRPC4 channel activators, dose response, cell-based, HEK293 TRPC4/mu-opioid, Fluo-4 calcium (AID 434937); type: functional
T1 sequence (Q9QUQ5 whole entry): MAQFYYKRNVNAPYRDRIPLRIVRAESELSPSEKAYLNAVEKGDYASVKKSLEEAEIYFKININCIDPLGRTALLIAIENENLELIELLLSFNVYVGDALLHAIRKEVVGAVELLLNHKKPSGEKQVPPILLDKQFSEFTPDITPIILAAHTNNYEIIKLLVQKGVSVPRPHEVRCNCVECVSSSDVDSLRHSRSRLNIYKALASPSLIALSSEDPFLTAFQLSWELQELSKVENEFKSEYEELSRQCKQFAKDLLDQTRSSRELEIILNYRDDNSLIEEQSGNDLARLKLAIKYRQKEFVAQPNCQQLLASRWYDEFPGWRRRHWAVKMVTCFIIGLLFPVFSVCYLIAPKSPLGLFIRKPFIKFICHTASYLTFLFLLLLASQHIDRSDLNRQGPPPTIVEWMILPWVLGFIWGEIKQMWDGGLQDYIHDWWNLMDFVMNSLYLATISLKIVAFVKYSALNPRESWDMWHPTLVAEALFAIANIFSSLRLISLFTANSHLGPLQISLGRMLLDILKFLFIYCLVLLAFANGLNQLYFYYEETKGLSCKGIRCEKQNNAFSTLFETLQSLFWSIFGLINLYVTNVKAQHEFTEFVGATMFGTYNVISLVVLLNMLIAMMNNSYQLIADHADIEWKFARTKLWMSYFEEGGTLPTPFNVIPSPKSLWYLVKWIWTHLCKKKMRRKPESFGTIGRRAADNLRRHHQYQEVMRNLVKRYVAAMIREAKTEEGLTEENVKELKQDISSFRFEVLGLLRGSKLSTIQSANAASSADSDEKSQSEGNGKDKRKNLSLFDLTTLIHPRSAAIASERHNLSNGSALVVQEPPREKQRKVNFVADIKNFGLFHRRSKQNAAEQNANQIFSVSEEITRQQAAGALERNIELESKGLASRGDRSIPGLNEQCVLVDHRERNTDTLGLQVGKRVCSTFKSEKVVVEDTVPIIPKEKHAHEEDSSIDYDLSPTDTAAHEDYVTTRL

Bcl-2-like protein 10 = molecular target: T2, Bcl-2-like protein 10 (Homo sapiens, UniProt Q9HD36); assay: displacers of TR3 peptide from Bcl-B, primary screen, selectivity assay for Bfl-1 inhibitor project, biochemical, fluorescence polarization, FITC-TR3 peptide (AID 748);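 also: fluorescence polarization from a fluorescein-labelled TR3 peptide binding purified Bcl-B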
T2 sequence (Q9HD36 whole entry): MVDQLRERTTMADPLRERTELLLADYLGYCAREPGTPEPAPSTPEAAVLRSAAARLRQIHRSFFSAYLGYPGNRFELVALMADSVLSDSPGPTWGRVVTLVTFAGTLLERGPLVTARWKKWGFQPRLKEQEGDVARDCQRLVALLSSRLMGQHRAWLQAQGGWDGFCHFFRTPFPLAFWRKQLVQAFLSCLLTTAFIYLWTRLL

[2] = molecular target: T1, Short transient receptor potential channel 4; assay: mouse TRPC4 channel inhibitors, dose response, cell-based, HEK293 TRPC4/mu-opioid, Fluo-4 calcium (AID 434942); type: functional;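 also: potency of inhibitors blocking the TRPC4 calcium response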
Cytochrome P450 1A2 = molecular target: T3, Cytochrome P450 1A2 (Homo sapiens, UniProt P05177);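 also: PubChem cytochrome P450 panel assay, CYP1A2 panel member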
T3 sequence (P05177 whole entry): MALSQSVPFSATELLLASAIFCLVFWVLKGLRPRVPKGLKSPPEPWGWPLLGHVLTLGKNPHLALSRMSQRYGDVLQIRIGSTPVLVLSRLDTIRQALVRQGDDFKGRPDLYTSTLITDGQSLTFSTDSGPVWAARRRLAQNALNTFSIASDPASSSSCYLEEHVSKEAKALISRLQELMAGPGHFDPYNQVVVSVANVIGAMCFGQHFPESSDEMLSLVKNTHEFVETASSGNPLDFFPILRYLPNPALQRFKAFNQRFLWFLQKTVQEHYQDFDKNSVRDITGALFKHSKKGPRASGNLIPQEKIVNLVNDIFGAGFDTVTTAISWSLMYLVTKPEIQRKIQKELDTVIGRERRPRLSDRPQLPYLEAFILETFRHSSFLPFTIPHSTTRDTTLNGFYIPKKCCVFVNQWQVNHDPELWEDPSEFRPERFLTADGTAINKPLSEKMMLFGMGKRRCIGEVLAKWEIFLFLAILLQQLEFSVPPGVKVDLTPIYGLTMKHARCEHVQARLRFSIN

[3] = NIH-3T3 fibroblast cytotoxicity, dose response, cytotoxicity control, cell-based, fluorescence, Alamar Blue, secondary assay (AID 2327); type: functional;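 also: NIH-3T3 mouse fibroblasts cultured with fluconazole at 8 µg/mL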
[4] = C. albicans growth with fluconazole, confirmation, fluorescence, retest (AID 2467); type: functional, cell-based
[5] = molecular target: T4, Histone-lysine N-methyltransferase NSD2 (Homo sapiens, UniProt O96028); type: biochemical
T4 sequence (O96028 whole entry): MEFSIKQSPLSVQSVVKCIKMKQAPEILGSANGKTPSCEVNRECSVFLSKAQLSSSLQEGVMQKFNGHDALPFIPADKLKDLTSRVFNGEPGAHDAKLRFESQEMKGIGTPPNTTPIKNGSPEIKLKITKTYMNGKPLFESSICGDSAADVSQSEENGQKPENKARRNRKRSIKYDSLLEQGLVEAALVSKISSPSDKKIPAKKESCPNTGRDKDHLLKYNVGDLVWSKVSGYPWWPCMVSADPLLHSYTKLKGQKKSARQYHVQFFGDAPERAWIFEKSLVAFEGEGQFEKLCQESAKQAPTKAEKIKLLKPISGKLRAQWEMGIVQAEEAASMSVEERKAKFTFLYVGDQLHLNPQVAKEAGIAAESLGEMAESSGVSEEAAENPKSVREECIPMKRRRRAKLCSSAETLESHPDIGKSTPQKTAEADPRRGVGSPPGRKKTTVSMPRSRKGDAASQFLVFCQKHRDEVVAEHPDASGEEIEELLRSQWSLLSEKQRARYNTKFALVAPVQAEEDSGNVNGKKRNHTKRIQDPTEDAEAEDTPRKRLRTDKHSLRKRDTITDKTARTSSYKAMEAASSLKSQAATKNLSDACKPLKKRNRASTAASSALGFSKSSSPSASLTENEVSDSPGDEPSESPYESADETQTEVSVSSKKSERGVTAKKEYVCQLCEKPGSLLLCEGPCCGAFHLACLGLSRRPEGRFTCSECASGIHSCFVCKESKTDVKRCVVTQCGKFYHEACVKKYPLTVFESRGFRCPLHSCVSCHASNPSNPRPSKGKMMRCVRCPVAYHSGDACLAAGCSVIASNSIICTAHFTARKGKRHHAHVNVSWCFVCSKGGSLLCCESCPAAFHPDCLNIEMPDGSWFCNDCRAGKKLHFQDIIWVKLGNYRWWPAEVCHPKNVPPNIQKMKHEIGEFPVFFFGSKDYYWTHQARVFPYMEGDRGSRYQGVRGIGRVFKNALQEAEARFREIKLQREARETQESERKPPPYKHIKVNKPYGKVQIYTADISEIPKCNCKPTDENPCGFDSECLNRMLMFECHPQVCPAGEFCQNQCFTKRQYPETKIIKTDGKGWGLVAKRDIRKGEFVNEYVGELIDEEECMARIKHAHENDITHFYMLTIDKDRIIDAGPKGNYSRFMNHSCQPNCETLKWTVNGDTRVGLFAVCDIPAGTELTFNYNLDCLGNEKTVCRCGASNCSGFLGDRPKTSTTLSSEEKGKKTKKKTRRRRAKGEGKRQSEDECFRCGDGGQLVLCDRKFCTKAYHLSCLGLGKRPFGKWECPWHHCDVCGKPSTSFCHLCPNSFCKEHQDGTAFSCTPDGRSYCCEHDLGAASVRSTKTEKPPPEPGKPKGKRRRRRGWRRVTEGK

[6] = molecular target: Glucose-6-phosphate 1-dehydrogenase (Homo sapiens, UniProt P11413); assay: human G6PD enzyme inhibitors, dose response, selectivity assay for P. falciparum G6PD inhibitor project, biochemical, fluorescence (AID 504792); type: functional
Glucose-6-phosphate 1-dehydrogenase, sequence (P11413 whole entry): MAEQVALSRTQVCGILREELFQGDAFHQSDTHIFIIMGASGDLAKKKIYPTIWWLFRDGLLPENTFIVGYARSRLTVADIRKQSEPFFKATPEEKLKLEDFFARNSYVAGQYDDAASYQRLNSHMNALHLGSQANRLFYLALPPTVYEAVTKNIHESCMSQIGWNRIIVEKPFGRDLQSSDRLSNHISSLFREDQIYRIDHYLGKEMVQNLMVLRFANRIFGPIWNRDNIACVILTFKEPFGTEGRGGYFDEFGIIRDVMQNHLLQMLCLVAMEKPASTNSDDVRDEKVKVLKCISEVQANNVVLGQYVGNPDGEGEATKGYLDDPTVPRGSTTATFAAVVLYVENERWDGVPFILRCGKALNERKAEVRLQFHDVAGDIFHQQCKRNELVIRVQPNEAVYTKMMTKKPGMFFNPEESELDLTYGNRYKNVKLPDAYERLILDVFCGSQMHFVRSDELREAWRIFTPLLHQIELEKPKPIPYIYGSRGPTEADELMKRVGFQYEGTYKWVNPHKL

Aminopeptidase N = molecular target: T5, Aminopeptidase N (Plasmodium falciparum FcB1/Columbia, UniProt O96935); assay: P. falciparum M1AAP inhibitors, biochemical, fluorogenic H-Leu-NHMec substrate, 1536-well (AID 1445); set-up: species or system Plasmodium falciparum 3D7, 3D7
T5 sequence (O96935 whole entry): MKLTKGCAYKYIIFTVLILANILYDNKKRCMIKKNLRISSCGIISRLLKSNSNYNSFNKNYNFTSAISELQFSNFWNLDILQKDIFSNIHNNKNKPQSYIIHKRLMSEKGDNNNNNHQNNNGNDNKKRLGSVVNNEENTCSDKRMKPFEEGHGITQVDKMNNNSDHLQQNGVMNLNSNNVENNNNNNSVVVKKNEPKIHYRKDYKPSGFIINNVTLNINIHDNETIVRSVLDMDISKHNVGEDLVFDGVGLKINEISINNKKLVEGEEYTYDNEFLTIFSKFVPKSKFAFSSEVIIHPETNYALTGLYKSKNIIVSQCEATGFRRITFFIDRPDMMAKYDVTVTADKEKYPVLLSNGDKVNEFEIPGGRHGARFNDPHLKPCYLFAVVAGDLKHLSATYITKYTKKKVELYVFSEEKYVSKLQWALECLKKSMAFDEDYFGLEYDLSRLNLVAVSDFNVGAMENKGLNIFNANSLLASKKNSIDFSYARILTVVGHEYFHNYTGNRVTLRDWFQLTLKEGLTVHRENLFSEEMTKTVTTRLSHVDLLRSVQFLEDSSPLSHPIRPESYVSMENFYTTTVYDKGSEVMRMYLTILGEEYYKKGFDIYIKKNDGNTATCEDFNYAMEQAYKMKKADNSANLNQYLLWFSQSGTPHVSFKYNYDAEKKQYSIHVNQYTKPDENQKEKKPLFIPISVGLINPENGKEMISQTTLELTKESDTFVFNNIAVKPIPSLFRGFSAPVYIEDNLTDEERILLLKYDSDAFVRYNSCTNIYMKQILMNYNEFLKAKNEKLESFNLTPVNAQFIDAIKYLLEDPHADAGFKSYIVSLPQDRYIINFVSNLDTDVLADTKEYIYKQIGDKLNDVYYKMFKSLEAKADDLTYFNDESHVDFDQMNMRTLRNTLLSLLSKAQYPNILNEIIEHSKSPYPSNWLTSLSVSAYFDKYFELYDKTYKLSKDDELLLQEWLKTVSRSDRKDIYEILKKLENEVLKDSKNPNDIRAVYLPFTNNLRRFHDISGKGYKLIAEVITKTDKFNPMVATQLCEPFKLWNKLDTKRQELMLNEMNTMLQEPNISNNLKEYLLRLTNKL

cells [7] = type: functional, cell-based
cells [8] = type: functional, cell-based; remark: listed apart in the source
INS1 = assay: beta cell apoptosis inhibitors, cytokine rescue, dose response, luminescence, retest (AID 449756); type: functional, cell-based; conditions: Rattus norvegicus;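 also: cell death triggered by IL-1 beta plus TNF-alpha plus IFN-gamma mixture; protective hits raise ATP signal compared with cytokine alone wells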
Cytochrome P450 3A4 = Cytochrome P450 3A4 (Homo sapiens, UniProt P08684);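 also: CYP3A4 tested as one member of a cytochrome P450 panel screen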
Cytochrome P450 3A4, sequence (P08684 whole entry): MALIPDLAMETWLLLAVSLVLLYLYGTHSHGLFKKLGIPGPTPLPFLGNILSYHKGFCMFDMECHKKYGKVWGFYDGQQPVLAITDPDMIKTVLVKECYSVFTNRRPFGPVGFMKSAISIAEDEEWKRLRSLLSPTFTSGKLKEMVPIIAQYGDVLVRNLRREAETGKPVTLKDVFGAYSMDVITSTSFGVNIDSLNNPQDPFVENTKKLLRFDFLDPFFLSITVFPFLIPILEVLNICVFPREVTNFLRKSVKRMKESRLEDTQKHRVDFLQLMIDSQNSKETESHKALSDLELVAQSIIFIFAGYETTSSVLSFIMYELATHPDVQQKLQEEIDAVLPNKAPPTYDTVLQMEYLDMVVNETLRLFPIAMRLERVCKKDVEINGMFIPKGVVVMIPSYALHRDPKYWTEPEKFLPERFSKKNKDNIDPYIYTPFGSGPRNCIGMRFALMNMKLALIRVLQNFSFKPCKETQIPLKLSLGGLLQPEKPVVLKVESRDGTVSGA

Cytochrome P450 2C9, sequence (P11712 whole entry): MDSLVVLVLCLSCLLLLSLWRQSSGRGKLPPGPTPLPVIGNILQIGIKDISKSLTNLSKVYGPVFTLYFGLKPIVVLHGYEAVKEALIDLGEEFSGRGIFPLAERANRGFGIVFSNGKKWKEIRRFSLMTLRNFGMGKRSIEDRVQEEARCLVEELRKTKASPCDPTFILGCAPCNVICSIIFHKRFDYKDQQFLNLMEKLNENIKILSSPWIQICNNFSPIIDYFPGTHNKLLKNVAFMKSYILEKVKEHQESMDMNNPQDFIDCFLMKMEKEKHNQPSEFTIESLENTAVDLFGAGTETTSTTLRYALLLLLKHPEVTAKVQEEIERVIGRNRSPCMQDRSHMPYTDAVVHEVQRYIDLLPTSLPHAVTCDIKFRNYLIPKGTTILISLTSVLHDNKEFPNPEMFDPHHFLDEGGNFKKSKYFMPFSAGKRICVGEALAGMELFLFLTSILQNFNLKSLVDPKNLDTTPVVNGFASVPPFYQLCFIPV

- AC50 (Cytochrome P450 2C9): inconclusive
Compound: Cn1c(=O)c2cc(S(=O)(=O)NCCC(=O)Nc3ccc(Cl)cc3)ccc2n(C)c1=O

- AC50 (Cytochrome P450 2C19): 3.98 µM (inconclusive)
- AC50 (Cytochrome P450 2C9): inconclusive
Compound: C[C@H]1CC[C@H]2C(=O)N[C@H](Cc3ccccc3)C(=O)N2[C@@H]1c1ccccc1

- EC50 [1]: 4.22 µM (active)
Compound: Cc1cc(NC(=O)c2cnn3cccnc23)nn1CC(=O)Nc1cccnc1

- IC50 (Bcl-2-like protein 10): > 100 µM (inactive)
Compound: COc1ccc(S(=O)(=O)N2CCCC2C(=O)Nc2nnc(-c3cccnc3)s2)cc1 (stereo not given)

- IC50 (Bcl-2-like protein 10): 62.8 µM (inactive)
Compound: O=C(NCCCN1CCN(Cc2ccccc2)CC1)C1CCN(c2nnc(-n3cccc3)s2)CC1

- EC50 [1]: 5.31 µM (active)
Compound: OCCC1CN(Cc2ccccc2-c2ccco2)CCN1Cc1ccccc1 (stereo not given)

- EC50 [2]: 0.841 µM (active)
- EC50 [1]: 2.66 µM (active)
Compound: CCOC(=O)C1(CC2CC2)CCN(Cc2ccc3cccc(F)c3n2)CC1

- AC50 (Cytochrome P450 2C19): 3.98 µM (inconclusive)
- AC50 (Cytochrome P450 1A2): 17.8 µM (inconclusive)
- AC50 (Cytochrome P450 2C9): inconclusive
Compound: O=C(N/C(=C/c1ccco1)C(=O)N1CCCCCC1)c1cccs1

Compound: Cc1ccc(S(=O)(=O)NC2=NC(=O)/C(=C\c3cc(Br)cc(Br)c3O)S2)cc1
- EC50 [3]: 9.99 µM (active)
- EC50 [4]: > 38 µM (not active)
- EC50 [1]: 10.6 µM (active)
- AC50 [5]: 6.67 µM (active)

Compound: O=C(CSc1nc2cc(Cl)ccc2s1)c1ccco1
- IC50 [6]: > 80 µM (inactive)

- IC50 (Bcl-2-like protein 10): 77 µM (inactive)
Compound: O=C(O)CCc1ccc(-c2cccs2)n1CCC(=O)O

- IC50 [6]: > 80 µM (inactive)
Compound: Cc1ccc(C(=O)Nc2nnc(S(=O)(=O)N3CCC(C)CC3)s2)cc1

- AC50 (Cytochrome P450 2C9): inconclusive
Compound: O=C(Nc1ccccc1)N1CC2(CCN(C(=O)c3cc(C(F)(F)F)cc(C(F)(F)F)c3)CC2)C1

- EC50 [1]: 1.19 µM (active)
Compound: Cc1cccc(OCCOCCN2CCNCC2)c1C

- IC50 (Bcl-2-like protein 10): 76.3 µM (inactive)
Compound: FC(F)(F)c1cnc(Nc2ccc(N3CCOCC3)cc2)c(Cl)c1

Compound: O=C(N/N=C/c1cc(Cl)ccc1O)c1ccccc1Br
- IC50 (Aminopeptidase N): 30.8 µM (active)
- EC50 (cells [7]): 14.7 µM (active)
- EC50 (cells [8]): > 350 µM (not active)
- AC50 (INS1): 2.29 µM (active)

- IC50 (Aminopeptidase N): 12.2 µM (active)
Compound: COc1cc(/C=N/NC(=O)[C@H](Cc2c[nH]c3ccccc23)NC(=O)OCC(C)C)cc([N+](=O)[O-])c1O

Compound: O=C(Nc1ccccc1C(=O)N/N=C/c1ccco1)c1ccccc1Cl
- IC50 [6]: > 80 µM (inactive)

- AC50 (Cytochrome P450 3A4): 22.4 µM (inconclusive)
- AC50 (Cytochrome P450 2C9): inconclusive
Compound: Oc1ccc2oc3c(c2c1)CCCC3
